Assay results from patent US20230158025A1 (UNIVERSITY OF UTAH RESEARCH FOUNDATION, priority 2020, published 2023).

Legend:
[1] = aqueous kinetic solubility; conditions: aqueous kinetic solubility
recombinant human GALK1 = recombinant human GALK1 (Homo sapiens, UniProt P51570); test: hGALK1 biochemical activity assay (Kinase-Glo Plus, ATP depletion); conditions: recombinant human GALK1, Kinase-Glo Plus ATP depletion, bracketed figure in the cell, e.g. (−1.2), is not defined in the text shown; for IC50: read-out: hGALK
Outline: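 Recombinant human or mouse GALK1 (5 nM, with 100 μM galactose, in the added enzyme solution) was run with ATP (35 μM in the substrate solution) in HEPES pH 8.0 buffer. Compounds were tested at 11 1/3-step concentrations from 57.4 μM to 0.97 nM. After 1 h at room temperature, remaining ATP was read by Kinase-Glo Plus luminescence.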

[2] = rat microsomal stability (RLM); conditions: microsomal stability half-life, minutes
recombinant mouse GALK1 = recombinant mouse GALK1 (Mus musculus, UniProt Q9R0N0); test: mGALK1 biochemical activity assay (Kinase-Glo Plus, ATP depletion); conditions: recombinant mouse GALK1, Kinase-Glo Plus ATP depletion, bracketed figure in the cell, e.g. (−1.2), is not defined in the text shown; for IC50: read-out: mGALK
Outline: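 Recombinant GALK1 (5 nM) with 100 μM galactose; GALK1 turnover read as ATP depletion by Kinase-Glo Plus luminescence. Reaction ran 1 h at room temperature before detection reagent was added.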

PAMPA permeability = conditions: PAMPA

Chain of recombinant mouse GALK1 (Q9R0N0 whole entry): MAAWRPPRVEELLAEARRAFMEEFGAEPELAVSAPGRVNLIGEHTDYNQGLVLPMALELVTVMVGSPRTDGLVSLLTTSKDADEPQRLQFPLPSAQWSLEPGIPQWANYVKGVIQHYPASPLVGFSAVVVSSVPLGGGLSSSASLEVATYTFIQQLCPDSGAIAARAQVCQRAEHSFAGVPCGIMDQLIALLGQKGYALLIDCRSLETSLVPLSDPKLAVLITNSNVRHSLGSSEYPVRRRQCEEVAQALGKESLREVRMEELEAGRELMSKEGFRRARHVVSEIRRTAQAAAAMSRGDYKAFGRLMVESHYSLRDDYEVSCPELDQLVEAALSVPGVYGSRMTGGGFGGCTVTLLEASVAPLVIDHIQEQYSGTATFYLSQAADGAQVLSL
Chain of recombinant human GALK1 (P51570 whole entry): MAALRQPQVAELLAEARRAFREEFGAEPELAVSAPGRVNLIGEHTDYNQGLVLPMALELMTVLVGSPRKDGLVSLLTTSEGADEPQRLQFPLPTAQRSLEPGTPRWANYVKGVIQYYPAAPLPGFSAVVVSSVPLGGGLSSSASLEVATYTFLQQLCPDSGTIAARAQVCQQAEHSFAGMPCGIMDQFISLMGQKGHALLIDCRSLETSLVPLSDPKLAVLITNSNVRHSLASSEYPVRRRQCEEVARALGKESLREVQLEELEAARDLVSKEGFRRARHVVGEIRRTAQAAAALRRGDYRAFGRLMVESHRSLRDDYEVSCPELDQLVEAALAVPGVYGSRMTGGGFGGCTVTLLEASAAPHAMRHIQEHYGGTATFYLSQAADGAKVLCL

Structure (SMILES)	Sol. [1] [µg/mL]	IC50 (recombinant human GALK1) [µM]	Metab. Stabil. (m) [2] [m]	IC50 (recombinant mouse GALK1) [µM]	Perm. (1 × 10^−6 cm/sec) (PAMPA permeability)	mGALK (μM) (recombinant mouse GALK1)	hGALK (μM) (recombinant human GALK1)
O=C(Nc1nncs1)C1=C(c2cnccn2)NC(Nc2nc3ccccc3o2)=NC1c1ccccc1Cl (centres unmarked) [Compound 249, 2-(benzo[d]oxazol-2-ylamino)-4-(2-chlorophenyl)-6-(pyrazin-2-yl)-N-(1,3,4-thiadiazol-2-yl)-1,4-dihydropyrimidine-5-carboxamide]	2.1	3.85	>30	21.7	60.3 1 × 10^−6 cm/sec		
CC1=C(C(=O)Nc2nncs2)C2(CCCC2)N=C(Nc2nc3ccccc3o2)N1 [Compound 252, 7-(benzo[d]oxazol-2-ylamino)-9-methyl-N-(1,3,4-thiadiazol-2-yl)-6,8-diazaspiro[4.5]deca-6,9-diene-10-carboxamide]	<1	3.85	>30	19.3	<1 1 × 10^−6 cm/sec		
CC1=C(C(=O)Nc2nncs2)C(c2n[nH]cc2Cl)N=C(Nc2nc3ccccc3o2)N1 (centres unmarked) [Compound 254, 2-(benzo[d]oxazol-2-ylamino)-4-(4-chloro-1H-pyrazol-3-yl)-6-methyl-N-(1,3,4-thiadiazol-2-yl)-1,4-dihydropyrimidine-5-carboxamide]	34.6	17.2	>30	54.4	37.0 1 × 10^−6 cm/sec		
CC1=C(C(=O)Nc2nncs2)C(c2ccncc2Br)N=C(Nc2nc3ccccc3o2)N1 (centres unmarked) [Compound 255, 2-(benzo[d]oxazol-2-ylamino)-4-(3-bromopyridin-4-yl)-6-methyl-N-(1,3,4-thiadiazol-2-yl)-1,4-dihydropyrimidine-5-carboxamide]	6.5	3.43	>30	19.3	208.7 1 × 10^−6 cm/sec		
CC1=C(C(=O)Nc2nncs2)C(c2ncccc2Cl)N=C(Nc2nc3ccccc3o2)N1 (centres unmarked) [Compound 256, 2-(benzo[d]oxazol-2-ylamino)-4-(3-chloropyridin-2-yl)-6-methyl-N-(1,3,4-thiadiazol-2-yl)-1,4-dihydropyrimidine-5-carboxamide]	10.6	6.85	>30	19.3	695.3 1 × 10^−6 cm/sec		
CC1=C(C(=O)Nc2nncs2)C2(Cc3ccccc32)N=C(Nc2nc3ccccc3o2)N1 (centres unmarked) [Compound 259, 2′-(benzo[d]oxazol-2-ylamino)-6′-methyl-N-(1,3,4-thiadiazol-2-yl)-1′H-spiro[bicyclo[4.2.0]octane-7,4′-pyrimidine]-1,3,5-triene-5′-carboxamide]	50.9		>30		190.9 1 × 10^−6 cm/sec	in- active	in- active
CC1=C(C(=O)Nc2nncs2)C(c2ccc(C)cc2Cl)N=C(Nc2nc3ccccc3o2)N1 (centres unmarked) [Compound 264, 2-(benzo[d]oxazol-2-ylamino)-4-(2-chloro-4-methylphenyl)-6-methyl-N-(1,3,4-thiadiazol-2-yl)-1,4-dihydropyrimidine-5-carboxamide]	<1	3.06	>30	6.11	<14.4 1 × 10^−6 cm/sec		
CC1=C(C(=O)Nc2nncs2)C(c2nn(C)cc2Br)N=C(Nc2nc3ccccc3o2)N1 (centres unmarked) [Compound 265, 2-(benzo[d]oxazol-2-ylamino)-4-(4-bromo-1-methyl-1H-pyrazol-3-yl)-6-methyl-N-(1,3,4-thiadiazol-2-yl)-1,4-dihydropyrimidine-5-carboxamide]	6.4	3.43	>30	19.3	1044.0 1 × 10^−6 cm/sec		

Continued by falling IC50 (recombinant human GALK1), values first:

Sol. [1] [µg/mL]	IC50 (recombinant human GALK1) [µM]	Metab. Stabil. (m) [2] [m]	IC50 (recombinant mouse GALK1) [µM]	Perm. (1 × 10^−6 cm/sec) (PAMPA permeability)	mGALK (μM) (recombinant mouse GALK1)	hGALK (μM) (recombinant human GALK1)	Structure (SMILES)
38.7	21.7	>30		198.3 1 × 10^−6 cm/sec	in- active		CC1=C(C(=O)Nc2nncs2)C(c2c(Br)cnn2C)N=C(Nc2nc3ccccc3o2)N1 (centres unmarked) [Compound 258, 2-(benzo[d]oxazol-2-ylamino)-4-(4-bromo-1-methyl-1H-pyrazol-5-yl)-6-methyl-N-(1,3,4-thiadiazol-2-yl)-1,4-dihydropyrimidine-5-carboxamide]
11.1	13.7	>30	19.3	185.7 1 × 10^−6 cm/sec			CC1=C(C(=O)Nc2nncs2)C(c2cccnc2Br)N=C(Nc2nc3ccccc3o2)N1 (centres unmarked) [Compound 262, 2-(benzo[d]oxazol-2-ylamino)-4-(2-bromopyridin-3-yl)-6-methyl-N-(1,3,4-thiadiazol-2-yl)-1,4-dihydropyrimidine-5-carboxamide]
37.9	12.2	>30		102.7 1 × 10^−6 cm/sec	in- active		CC1=C(C(=O)Nc2nncs2)C2(CCOC2)N=C(Nc2nc3ccccc3o2)N1 (centres unmarked) [Compound 260, 7-(benzo[d]oxazol-2-ylamino)-9-methyl-N-(1,3,4-thiadiazol-2-yl)-2-oxa-6,8-diazaspiro[4.5]deca-6,9-diene-10-carboxamide]
<1	7.69	>30	15.3	24.6 1 × 10^−6 cm/sec			CC(C)C1=C(C(=O)Nc2nncs2)C(c2ccccc2Cl)N=C(Nc2nc3ccccc3o2)N1 (centres unmarked) [Compound 250, 2-(benzo[d]oxazol-2-ylamino)-4-(2-chlorophenyl)-6-isopropyl-N-(1,3,4-thiadiazol-2-yl)-1,4-dihydropyrimidine-5-carboxamide]
12.8	7.69	>30	17.2	746.9 1 × 10^−6 cm/sec			CC1=C(C(=O)Nc2nncs2)C(c2nn(C)cc2Cl)N=C(Nc2nc3ccccc3o2)N1 (centres unmarked) [Compound 253, 2-(benzo[d]oxazol-2-ylamino)-4-(4-chloro-1-methyl-1H-pyrazol-3-yl)-6-methyl-N-(1,3,4-thiadiazol-2-yl)-1,4-dihydropyrimidine-5-carboxamide]
<1	6.85	>30	12.2	29.8 1 × 10^−6 cm/sec			CC1=C(C(=O)Nc2nncs2)C(c2ccccc2C(F)(F)F)N=C(Nc2nc3ccccc3o2)N1 (centres unmarked) [Compound 263, 2-(benzo[d]oxazol-2-ylamino)-6-methyl-N-(1,3,4-thiadiazol-2-yl)-4-(2-(trifluoromethyl)phenyl)-1,4-dihydropyrimidine-5-carboxamide]
<1	5.44	>30	17.2	42.7 1 × 10^−6 cm/sec			CC(C)CC1=C(C(=O)Nc2nncs2)C(c2ccccc2Cl)N=C(Nc2nc3ccccc3o2)N1 (centres unmarked) [Compound 248, 2-(benzo[d]oxazol-2-ylamino)-4-(2-chlorophenyl)-6-isobutyl-N-(1,3,4-thiadiazol-2-yl)-1,4-dihydropyrimidine-5-carboxamide]
3.0	4.85	>30	6.85	709.3 1 × 10^−6 cm/sec			CC1=C(C(=O)Nc2nncs2)C(c2ncccc2Br)N=C(Nc2nc3ccccc3o2)N1 (centres unmarked) [Compound 257, 2-(benzo[d]oxazol-2-ylamino)-4-(3-bromopyridin-2-yl)-6-methyl-N-(1,3,4-thiadiazol-2-yl)-1,4-dihydropyrimidine-5-carboxamide]
<1	4.85	>30	6.11	<4.9 1 × 10^−6 cm/sec			CC1=C(C(=O)Nc2nncs2)C(c2ccc(Cl)cc2Cl)N=C(Nc2nc3ccccc3o2)N1 (centres unmarked) [Compound 261, 2-(benzo[d]oxazol-2-ylamino)-4-(2,4-dichlorophenyl)-6-methyl-N-(1,3,4-thiadiazol-2-yl)-1,4-dihydropyrimidine-5-carboxamide]
<1	4.32	>30	9.68	446.9 1 × 10^−6 cm/sec			CC1=C(C(=O)Nc2nncs2)C(c2ccccc2Br)N=C(Nc2nc3ccccc3o2)N1 (centres unmarked) [Compound 251, 2-(benzo[d]oxazol-2-ylamino)-4-(2-bromophenyl)-6-methyl-N-(1,3,4-thiadiazol-2-yl)-1,4-dihydropyrimidine-5-carboxamide]
<1	3.85	>30	5.44	31.9 1 × 10^−6 cm/sec			COc1ccc(C2N=C(Nc3nc4ccccc4o3)NC(C)=C2C(=O)Nc2nncs2)c(Cl)c1 (centres unmarked) [Compound 266, 2-(benzo[d]oxazol-2-ylamino)-4-(2-chloro-4-methoxyphenyl)-6-methyl-N-(1,3,4-thiadiazol-2-yl)-1,4-dihydropyrimidine-5-carboxamide]
